Experiment: Evaluation of storage stability (P-NMR integration values before and after storage)
Description: Note that evaluation of storage stability can be carried out by calculation of peak area derived from Compound (6) by high performance liquid chromatography or calculation of integration value by P-NMR measurement before and after storage.
Using the resulting di-tert-butyl chlorophosphate, N-methylmorpholine (NMM) and N,N-diisopropyl ethylamine (iPr2EtN) were added at given concentrations as tertiary amines, prior to concentrating the organic layer containing the phosphate. Then, after storing at a temperature of 40° C. for 3 hours (3 hr) or 6 hours (6 hr), integration values of di-tert-butyl chlorophosphate before and after storage were measured by P-NMR measurements. Note that the storage test at 40° C. was carried out using EYELA ChemStation (temperature accuracy of ±1° C.) as thermoregulated bath.

[1] = 0 mol % NMM added, 40° C., 3 hours storage test, FIG. 2

For `CC(C)(C)OP(=O)(OCCl)OC(C)(C)C` [di-tert-butyl chlorophosphate, di-tert-butyl chloromethyl phosphate], the “amount of remaining di-tert-butyl chlorophosphate” value [1] was 34%, the “initial di-tert-butyl chlorophosphate decomposed” value [1] was 66% and the “amount of di-tert-butyl chlorophosphate remaining” value (1 mol % NMM added, 40° C., 3 hours storage test) was 34%. The “amount of di-tert-butyl chlorophosphate remaining” value (2.5 mol % NMM added, 40° C., 3 hours storage test) was 88%, the “decomposition of di-tert-butyl chlorophosphate on storage” value (shortened to “decomposition”) (5 mol % NMM added, 40° C., 3 hours storage test, FIG. 2) was “not observed” and the “decomposition” value (5 mol % NMM added, stored at 40° C. for 3 hr or 6 hr, FIG. 1) was “no decomposition”. The “decomposition” value (5 mol % iPr2EtN added, stored at 40° C. for 3 hr or 6 hr, FIG. 1) was “no decomposition” and the “decomposition” value (10 mol % NMM added, storage at room temperature for 1.5 days) was “no decomposition”.

— patent publication US20090114877A1, “Composition Containing Stability-Improved Chloromethyl Phosphate Derivatve and Process for Producing Same” (Eisai R&D Management Co., Ltd., priority 2005, published 2009)
